In ChEMBL document CHEMBL3627608, “Crystal structures of human RIP2 kinase catalytic domain complexed with ATP-competitive inhibitors: Foundations for understanding inhibitor selectivity” (Bioorg Med Chem, 2015):

Tests used:
[1] = target: T1, Ephrin type-A receptor 3 (Homo sapiens) (UniProt P29320); assay: Inhibition of EPHA3 (unknown origin) at 10 uM after 120 mins P33 radiolabeled kinase activity assay
T1 sequence (whole entry): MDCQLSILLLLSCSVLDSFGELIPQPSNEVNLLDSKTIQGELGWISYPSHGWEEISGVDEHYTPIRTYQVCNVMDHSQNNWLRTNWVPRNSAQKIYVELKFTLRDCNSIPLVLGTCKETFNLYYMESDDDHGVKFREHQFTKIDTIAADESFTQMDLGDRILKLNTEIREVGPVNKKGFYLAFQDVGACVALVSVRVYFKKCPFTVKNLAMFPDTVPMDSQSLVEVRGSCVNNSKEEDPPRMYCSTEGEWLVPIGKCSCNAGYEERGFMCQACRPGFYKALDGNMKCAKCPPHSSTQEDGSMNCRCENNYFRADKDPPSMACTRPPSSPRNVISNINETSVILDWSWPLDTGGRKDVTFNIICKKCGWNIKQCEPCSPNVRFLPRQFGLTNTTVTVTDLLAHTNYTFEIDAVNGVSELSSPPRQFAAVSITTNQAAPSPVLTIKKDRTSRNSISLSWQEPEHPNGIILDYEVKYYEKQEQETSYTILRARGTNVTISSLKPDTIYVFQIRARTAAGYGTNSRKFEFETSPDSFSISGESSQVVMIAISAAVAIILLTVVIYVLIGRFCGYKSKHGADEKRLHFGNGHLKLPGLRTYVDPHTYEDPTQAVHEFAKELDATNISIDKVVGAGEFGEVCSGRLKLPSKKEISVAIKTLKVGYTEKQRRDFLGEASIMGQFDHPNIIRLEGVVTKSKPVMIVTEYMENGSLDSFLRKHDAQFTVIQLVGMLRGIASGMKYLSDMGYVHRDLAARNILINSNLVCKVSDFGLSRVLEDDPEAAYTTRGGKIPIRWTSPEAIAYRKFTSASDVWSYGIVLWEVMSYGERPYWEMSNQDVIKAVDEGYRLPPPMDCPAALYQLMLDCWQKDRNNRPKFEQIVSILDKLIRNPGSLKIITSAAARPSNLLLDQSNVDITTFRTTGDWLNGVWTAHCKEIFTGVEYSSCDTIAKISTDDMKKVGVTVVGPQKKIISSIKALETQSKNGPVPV

[2] = target: CDK1/Cyclin E (Homo sapiens) (UniProt P06493+P24864); assay: Inhibition of CDK1/cyclin E (unknown origin) at 10 uM after 120 mins P33 radiolabeled kinase activity assay; format: protein-complex assay
[3] = target: T2, Ephrin type-B receptor 2 (Homo sapiens) (UniProt P29323); assay: Inhibition of EPHB2 (unknown origin) at 10 uM after 120 mins P33 radiolabeled kinase activity assay
T2 sequence (whole entry): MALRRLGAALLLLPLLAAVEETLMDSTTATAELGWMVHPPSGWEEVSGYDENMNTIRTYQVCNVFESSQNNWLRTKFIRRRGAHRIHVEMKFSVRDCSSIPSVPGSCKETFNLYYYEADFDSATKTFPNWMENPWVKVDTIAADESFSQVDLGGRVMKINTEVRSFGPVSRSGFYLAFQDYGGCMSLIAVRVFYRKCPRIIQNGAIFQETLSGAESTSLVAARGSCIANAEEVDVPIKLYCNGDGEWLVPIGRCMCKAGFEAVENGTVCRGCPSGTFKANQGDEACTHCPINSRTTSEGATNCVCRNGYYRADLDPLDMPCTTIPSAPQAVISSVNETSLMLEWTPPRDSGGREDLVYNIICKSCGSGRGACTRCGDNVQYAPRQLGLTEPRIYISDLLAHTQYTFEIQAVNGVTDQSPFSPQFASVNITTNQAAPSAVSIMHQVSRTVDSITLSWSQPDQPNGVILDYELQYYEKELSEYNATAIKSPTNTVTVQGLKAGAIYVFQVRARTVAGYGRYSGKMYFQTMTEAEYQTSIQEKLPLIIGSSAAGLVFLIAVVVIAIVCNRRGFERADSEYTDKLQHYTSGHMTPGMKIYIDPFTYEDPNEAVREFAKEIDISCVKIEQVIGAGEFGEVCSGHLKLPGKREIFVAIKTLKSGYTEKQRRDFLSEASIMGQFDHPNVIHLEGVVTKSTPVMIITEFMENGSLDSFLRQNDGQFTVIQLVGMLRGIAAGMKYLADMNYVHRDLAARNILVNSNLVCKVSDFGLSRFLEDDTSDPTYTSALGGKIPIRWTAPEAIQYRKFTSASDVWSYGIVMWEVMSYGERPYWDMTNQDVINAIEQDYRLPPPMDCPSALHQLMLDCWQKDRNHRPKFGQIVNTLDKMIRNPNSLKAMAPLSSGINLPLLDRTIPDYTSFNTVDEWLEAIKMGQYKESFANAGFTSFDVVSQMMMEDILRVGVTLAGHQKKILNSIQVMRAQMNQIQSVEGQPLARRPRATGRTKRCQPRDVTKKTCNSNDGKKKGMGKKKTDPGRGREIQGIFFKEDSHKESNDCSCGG

[4] = target: T3, Serine/threonine-protein kinase D3 (Homo sapiens) (UniProt O94806); assay: Inhibition of PKCnu (unknown origin) at 10 uM after 120 mins P33 radiolabeled kinase activity assay
T3 sequence (whole entry): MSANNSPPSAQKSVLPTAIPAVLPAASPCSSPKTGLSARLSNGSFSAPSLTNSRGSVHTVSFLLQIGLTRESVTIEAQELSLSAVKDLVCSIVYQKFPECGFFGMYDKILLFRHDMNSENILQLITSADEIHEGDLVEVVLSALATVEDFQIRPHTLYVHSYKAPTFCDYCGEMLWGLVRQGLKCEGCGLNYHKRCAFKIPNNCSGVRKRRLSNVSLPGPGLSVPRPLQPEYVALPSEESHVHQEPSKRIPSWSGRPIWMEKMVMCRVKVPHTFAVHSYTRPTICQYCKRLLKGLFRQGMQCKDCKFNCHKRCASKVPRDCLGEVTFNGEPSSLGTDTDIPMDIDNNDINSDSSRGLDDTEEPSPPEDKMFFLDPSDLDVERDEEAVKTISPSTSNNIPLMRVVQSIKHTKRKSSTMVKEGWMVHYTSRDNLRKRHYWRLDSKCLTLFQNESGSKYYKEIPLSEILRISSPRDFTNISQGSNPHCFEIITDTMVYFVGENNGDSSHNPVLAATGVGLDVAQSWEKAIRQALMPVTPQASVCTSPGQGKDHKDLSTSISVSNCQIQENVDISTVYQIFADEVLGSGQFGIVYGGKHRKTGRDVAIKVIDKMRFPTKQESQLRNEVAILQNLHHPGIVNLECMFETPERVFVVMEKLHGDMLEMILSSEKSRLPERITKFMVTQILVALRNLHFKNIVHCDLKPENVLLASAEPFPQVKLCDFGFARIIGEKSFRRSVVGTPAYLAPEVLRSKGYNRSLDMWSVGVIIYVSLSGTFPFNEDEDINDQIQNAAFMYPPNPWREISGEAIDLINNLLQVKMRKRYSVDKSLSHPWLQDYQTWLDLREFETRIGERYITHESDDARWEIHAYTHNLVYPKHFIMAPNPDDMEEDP

Sequence of CDK1/Cyclin E (Homo sapiens) (P06493 whole entry, looked up): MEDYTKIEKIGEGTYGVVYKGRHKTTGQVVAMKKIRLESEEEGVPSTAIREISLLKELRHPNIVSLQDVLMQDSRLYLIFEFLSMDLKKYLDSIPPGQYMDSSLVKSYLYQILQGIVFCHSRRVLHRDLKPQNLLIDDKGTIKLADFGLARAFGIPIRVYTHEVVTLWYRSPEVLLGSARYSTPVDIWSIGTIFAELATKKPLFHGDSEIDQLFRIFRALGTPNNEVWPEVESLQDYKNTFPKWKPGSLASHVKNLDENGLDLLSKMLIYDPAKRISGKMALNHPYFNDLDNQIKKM
Sequence of CDK1/Cyclin E (Homo sapiens) (P24864 whole entry, looked up): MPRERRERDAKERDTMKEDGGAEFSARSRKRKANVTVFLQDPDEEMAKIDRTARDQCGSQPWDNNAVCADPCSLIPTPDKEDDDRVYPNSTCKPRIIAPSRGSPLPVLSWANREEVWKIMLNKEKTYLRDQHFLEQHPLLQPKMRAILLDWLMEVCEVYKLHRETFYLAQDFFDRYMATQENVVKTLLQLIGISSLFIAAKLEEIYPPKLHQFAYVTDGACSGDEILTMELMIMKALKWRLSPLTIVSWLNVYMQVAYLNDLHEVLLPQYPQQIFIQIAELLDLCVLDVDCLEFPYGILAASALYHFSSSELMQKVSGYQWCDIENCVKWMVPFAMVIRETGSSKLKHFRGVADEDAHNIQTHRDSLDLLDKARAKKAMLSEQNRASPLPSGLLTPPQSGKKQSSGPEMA

inhibition [1]	inhibition [2]	inhibition [3]	inhibition [4]	SMILES
57.4%	78.3%	74.9%	99.9%	CS(=O)(=O)c1cccc(Nc2nccc(-c3sc(N4CCOCC4)nc3-c3cccc(NS(=O)(=O)c4c(F)cccc4F)c3)n2)c1
17.5%	-2.74%	20.3%	9.76%	COCCNC(=O)c1ccc2c(c1)nc(-c1cnc(-c3ccc(Cl)cc3)[nH]1)n2CCOC
91.5%	72.2%	97.7%	11.4%	CC(C)(C)c1cc(NC(=O)Nc2ccc(Oc3ccncc3)cc2)no1
